Measurements taken from patent publication EP1501514B1, “PROTEIN KINASE MODULATORS AND METHODS OF USE” (Exelixis, Inc., priority 2002, dated 2003).

Target: T1, Chk1 (Homo sapiens, UniProt O14757)
T1 construct: purchased Upstate Biotechnology
T1 sequence (O14757 1-476): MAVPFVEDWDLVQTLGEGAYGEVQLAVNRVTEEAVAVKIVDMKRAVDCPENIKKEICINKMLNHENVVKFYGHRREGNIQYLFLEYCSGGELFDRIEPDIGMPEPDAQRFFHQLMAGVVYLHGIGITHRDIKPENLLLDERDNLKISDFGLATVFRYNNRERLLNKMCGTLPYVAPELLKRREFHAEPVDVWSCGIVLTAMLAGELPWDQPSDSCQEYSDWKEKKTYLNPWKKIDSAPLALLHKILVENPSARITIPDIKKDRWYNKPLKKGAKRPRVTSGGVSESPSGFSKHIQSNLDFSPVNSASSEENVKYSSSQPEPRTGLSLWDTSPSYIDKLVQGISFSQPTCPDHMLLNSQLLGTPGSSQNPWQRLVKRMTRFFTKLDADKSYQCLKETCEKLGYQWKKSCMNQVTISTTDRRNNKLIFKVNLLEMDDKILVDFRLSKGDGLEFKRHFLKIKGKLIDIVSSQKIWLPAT
Experiment: Chk1 assay: incorporation of γ-33P ATP into immobilized myelin basic protein
Assay type: biochemical
Settings: not given
Description: Chk1 and Chk2 assays were performed by measuring incorporation of γ-^33P ATP into immobilized myelin basic protein (MBP). High binding white 384 well plates (Greiner) were coated with MBP (Sigma #M-1891) by incubation of 60ul/well of 20µg/ml MBP in Tris-buffered saline (TBS; 50mM Tris pH 8.0, 138mM NaCl, 2.7mM KCl) for 24 hours at 4° C. Plates were washed 3X with 100µl TBS. Kinase reactions were carried out in a total volume of 34µl in kinase buffer (5mM Hepes pH 7.6, 15mM NaCl, 0.01% bovine gamma globulin (Sigma #I-5506), 10mM MgCl2, 1mM DTT, 0.02% TritonX-100). Compound dilutions were performed in DMSO and added to assay wells to a final DMSO concentration of 1%. Each data point was measured in duplicate, and at least two duplicate assays were performed for each individual compound determination. Chkl and Chk2 enzymes (Upstate Biotechnology) were added to final concentrations of 10nM (Chkl) or 20nM (Chk2). A mixture of unlabeled ATP and γ-^33P ATP was added to start the reaction (2x10^6 cpm of γ-^33P ATP per well (3000Ci/mmole) and either 10µM or 30µM unlabeled ATP (for Chkl and Chk2 assays respectively). The reaction was carried out for 1 hour at room temperature with shaking. Plates were washed 7x with TBS, followed by the addition of 50µl/well scintillation fluid (Wallac). Plates were read using a Wallac Trilux counter. This is only one format of such assays, various other formats are possible, as known to those skilled in the art.
The above assay procedure can be used to determine the IC50 for inhibition and/or the inhibition constant Ki. The IC50 is defined as the concentration of compound required to reduce the enzyme activity by 50% under the conditions of the assay. […] The Ki for a compound may be determined from the IC50 based on three assumptions. First, only one compound molecule binds to the enzyme and there is no cooperativity. […] Third, the enzymatic rate of the enzyme-inhibitor complex is zero. The rate (i.e., compound concentration) data are fitted to the equation: V = Vmax E0 [I-((E0+I0+Kd)-sqrt(((E0+I0+Kd))^2 -4E0 I0))/(2E0)] [formula]

Row | Structure (SMILES) | IC50 [nM]
1 | Nc1ncc(-c2cccc(C(=O)NCc3ccc(-c4cccs4)cc3)c2)nc1C(=O)N[C@H]1CCCNC1 [compound 854, 3-amino-N-[(3S)-piperidin-3-yl]-6-{3-[({[4-(2-thienyl)phenyl]methyl}amino)carbonyl]phenyl}pyrazine-2-carboxamide] | < 50
2 | Cc1ccc(C(=O)Nc2cccc(-c3cnc(N)c(C(=O)N[C@H]4CCCNC4)n3)c2)cn1 [compound 978, 3-amino-6-(3-{[(6-methylpyridin-3-yl)carbonyl]amino}phenyl)-N-[(3S)-piperidin-3-yl]pyrazine-2-carboxamide] | < 50
3 | Nc1ncc(-c2cccc(C(=O)NCc3cc(C(F)(F)F)ccc3Cl)c2)nc1C(=O)N[C@H]1CCCNC1 [compound 994, 3-amino-6-{3-[({[2-chloro-5-(trifluoromethyl)phenyl]methyl}amino)carbonyl]phenyl}-N-[(3S)-piperidin-3-yl]pyrazine-2-carboxamide] | < 50
4 | Nc1ncc(-c2cccc(C(=O)NCc3ccc(C(F)(F)F)cc3F)c2)nc1C(=O)N[C@H]1CCCNC1 [compound 1001, 3-amino-6-{3-[({[2-fluoro-4-(trifluoromethyl)phenyl]methyl}amino)carbonyl]phenyl}-N-[(3S)-piperidin-3-yl]pyrazine-2-carboxamide] | < 50
5 | Nc1ncc(-c2cccc(C(=O)NCc3ccc(F)c(Cl)c3)c2)nc1C(=O)N[C@H]1CCCNC1 [compound 1006, 3-amino-6-[3-({[(3-chloro-4-fluorophenyl)methyl]amino}carbonyl)phenyl]-N-[(3S)-piperidin-3-yl]pyrazine-2-carboxamide] | < 50

Same assay, conditions: Table 11; Chk1 only

Row | Structure (SMILES) | IC50 [nM]
6 | CNC(=O)c1nc(-c2ccc(OC)cc2)cnc1N [compound 54, 3-amino-N-methyl-6-[4-(methyloxy)phenyl]pyrazine-2-carboxamide] | 1000 to 10000
7 | CNC(=O)c1nc(-c2cccc(-c3ccccc3)c2)cnc1N [compound 55, 3-amino-6-biphenyl-3-yl-N-methylpyrazine-2-carboxamide] | 50 to 1000
8 | CNC(=O)c1nc(-c2cccc(NC(C)=O)c2)cnc1N [compound 56, 6-[3-(acetylamino)phenyl]-3-amino-N-methylpyrazine-2-carboxamide] | 50 to 1000
9 | CNC(=O)c1nc(-c2ccc(F)c(C)c2)cnc1N [compound 61, 3-amino-6-(4-fluoro-3-methylphenyl)-N-methylpyrazine-2-carboxamide] | 50 to 1000
10 | CNC(=O)c1nc(-c2cccnc2)cnc1N [compound 62, 3-amino-N-methyl-6-pyridin-3-ylpyrazine-2-carboxamide] | 1000 to 10000
11 | CNC(=O)c1cccc(-c2cnc(N)c(C(=O)NC)n2)c1 [compound 64, 3-amino-N-methyl-6-{3-[(methylamino)carbonyl]phenyl}pyrazine-2-carboxamide] | 1000 to 10000
12 | CNC(=O)c1nc(-c2cccc(C(C)=O)c2)cnc1N [compound 65, 6-(3-acetylphenyl)-3-amino-N-methylpyrazine-2-carboxamide] | 1000 to 10000
13 | CNC(=O)c1nc(-c2noc(-c3cccnc3)n2)cnc1N [compound 66, 3-amino-N-methyl-6-(5-pyridin-3-yl-1,2,4-oxadiazol-3-yl)pyrazine-2-carboxamide] | > 10000
14 | CNC(=O)c1nc(-c2noc(C3CCCCC3)n2)cnc1N [compound 68, 3-amino-6-(5-cyclohexyl-1,2,4-oxadiazol-3-yl)-N-methylpyrazine-2-carboxamide] | > 10000
15 | CNC(=O)c1nc(-c2noc(C)n2)cnc1N [compound 71, 3-amino-N-methyl-6-(5-methyl-1,2,4-oxadiazol-3-yl)pyrazine-2-carboxamide] | 1000 to 10000
16 | CNC(=O)c1nc(-c2noc(-c3ccncc3)n2)cnc1N [compound 73, 3-amino-N-methyl-6-(5-pyridin-4-yl-1,2,4-oxadiazol-3-yl)pyrazine-2-carboxamide] | > 10000
17 | Cc1cccc(-c2cnc(N)c(C(=O)NCCO)n2)c1 [compound 329, 3-amino-N-(2-hydroxyethyl)-6-(3-methylphenyl)pyrazine-2-carboxamide] | 1000 to 10000
18 | CNC(=O)c1nc(-c2cccc(C(=O)NCc3ccc(C(C)(C)C)cc3)c2)cnc1N [compound 353, 3-amino-6-{3-[({[4-(1,1-dimethylethyl)phenyl]methyl}amino)carbonyl]phenyl}-N-methylpyrazine-2-carboxamide] | 50 to 1000

Same assay, conditions: Table 11; inhibition given as IC50 class symbol

Row | Structure (SMILES) | IC50 [nM]
19 | CC(C)(C)c1nnc(-c2nc(-c3cccc(CO)c3)cnc2N)[nH]1 [compound 569, (3-{5-amino-6-[5-(1,1-dimethylethyl)-4H-1,2,4-triazol-3-yl]pyrazin-2-yl}phenyl)methanol] | 1000 to 10000
20 | C[C@@H](NC(=O)c1cccc(-c2cnc(N)c(C(=O)N[C@H]3CCNC3)n2)c1)c1ccccc1 [compound 716, 3-amino-6-[3-({[(1R)-1-phenylethyl]amino}carbonyl)phenyl]-N-[(3S)-pyrrolidin-3-yl]pyrazine-2-carboxamide] | 1000 to 10000
21 | N=C(NNc1ccccc1)c1nc(-c2cccc(C(=O)N[C@H]3CCc4ccccc43)c2)cnc1N [compound 720, 3-{5-amino-6-[imino(2-phenylhydrazino)methyl]pyrazin-2-yl}-N-[(1S)-2,3-dihydro-1H-inden-1-yl]benzamide] | > 10000
22 | CC(C)(C)OC(=O)N1CC[C@H](NC(=O)c2nc(-c3cccc(C(=O)NCc4ccc(Cl)cc4)c3)cnc2N)C1 [compound 756, 1,1-dimethylethyl (3S)-3-[({3-amino-6-[3-({[(4-chlorophenyl)methyl]amino}carbonyl)phenyl]pyrazin-2-yl}carbonyl)amino]pyrrolidine-1-carboxylate] | 50 to 1000
23 | Nc1ncc(-c2cccc(C(=O)NCc3cccnc3)c2)nc1C(=O)N[C@H]1CCNC1 [compound 762, 3-amino-6-(3-{[(pyridin-3-ylmethyl)amino]carbonyl}phenyl)-N-[(3S)-pyrrolidin-3-yl]pyrazine-2-carboxamide] | 50 to 1000
24 | Nc1ncc(-c2cccc(C(=O)N[C@H]3CCc4ccccc43)c2)nc1C(=O)N[C@H]1CCCNC1 [compound 764, 3-amino-6-(3-{[(1S)-2,3-dihydro-1H-inden-1-ylamino]carbonyl}phenyl)-N-[(3S)-piperidin-3-yl]pyrazine-2-carboxamide] | < 50
25 | CC(C)(C)OC(=O)N1CC[C@H](CNC(=O)c2nc(-c3cccc(C(=O)N[C@H]4CCc5ccccc54)c3)cnc2N)C1 [compound 784, 1,1-dimethylethyl (3R)-3-[({[3-amino-6-(3-{[(1S)-2,3-dihydro-1H-inden-1-ylamino]carbonyl}phenyl)pyrazin-2-yl]carbonyl}amino)methyl]pyrrolidine-1-carboxylate] | > 10000
